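Growth conditions: 96-well plates. Treatment: test compound, 48 hours, 5 concentrations. Analysis: linear interpolation between bracketing concentrations; unreached endpoints set to highest concentration. TGI is the concentration that stops growth completely.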
Legend:
Assay in all cases: inhibition of tumour cell growth, NCI panel, 48 h
MDA-MB-231 breast = test system: MDA-MB-231 breast
OVCAR-3 ovarian = test system: OVCAR-3 ovarian
NCI-H23 lung = test system: NCI-H23 lung
HCT-15 colon = test system: HCT-15 colon
SF-295 CNS = test system: SF-295 CNS
MCF7 breast = test system: MCF7 breast
LOX IMVI melanoma = test system: LOX IMVI melanoma
SF-268 CNS = test system: SF-268 CNS
PC-3 prostate = test system: PC-3 prostate
OVCAR-5 ovarian = test system: OVCAR-5 ovarian
NCI-H226 lung = test system: NCI-H226 lung
BT-549 breast = test system: BT-549 breast
NCI-H460 lung = test system: NCI-H460 lung
SF-539 CNS = test system: SF-539 CNS
TK-10 renal = test system: TK-10 renal
KM12 colon = test system: KM12 colon
SK-MEL-5 melanoma = test system: SK-MEL-5 melanoma
U251 CNS = test system: U251 CNS
MDA-MB-435 = test system: MDA-MB-435
A498 renal = test system: A498 renal
HCT-116 colon = test system: HCT-116 colon
SR leukemia = test system: SR leukemia
RPMI-8226 leukemia = test system: RPMI-8226 leukemia
HOP-62 NSCLC = test system: HOP-62 NSCLC
M14 melanoma = test system: M14 melanoma
SK-MEL-28 melanoma = test system: SK-MEL-28 melanoma
MDA-N = test system: MDA-N
T-47D breast = test system: T-47D breast
EKVX NSCLC = test system: EKVX NSCLC
COLO 205 colon = test system: COLO 205 colon
MOLT-4 leukemia = test system: MOLT-4 leukemia
DU-145 prostate = test system: DU-145 prostate
SNB-19 CNS = test system: SNB-19 CNS
786-0 renal = test system: 786-0 renal
ACHN renal = test system: ACHN renal
HOP-92 NSCLC = test system: HOP-92 NSCLC
SW-620 colon = test system: SW-620 colon
HT29 colon = test system: HT29 colon
HS 578T breast = test system: HS 578T breast
NCI/ADR-RES ovarian = test system: NCI/ADR-RES ovarian
OVCAR-8 ovarian = test system: OVCAR-8 ovarian
SN12C renal = test system: SN12C renal
CAKI-1 renal = test system: CAKI-1 renal
MALME-3M melanoma = test system: MALME-3M melanoma
UO-31 renal = test system: UO-31 renal
UACC-257 melanoma = test system: UACC-257 melanoma
HL-60(TB) leukemia = test system: HL-60(TB) leukemia
CCRF-CEM leukemia = test system: CCRF-CEM leukemia
IGROV1 ovarian = test system: IGROV1 ovarian
SK-OV-3 ovarian = test system: SK-OV-3 ovarian
A549 NSCLC = test system: A549 NSCLC
SNB-75 CNS = test system: SNB-75 CNS
RXF 393 renal = test system: RXF 393 renal
NCI-H522 lung = test system: NCI-H522 lung
SK-MEL-2 melanoma = test system: SK-MEL-2 melanoma
HCC-2998 colon = test system: HCC-2998 colon
OVCAR-4 ovarian = test system: OVCAR-4 ovarian
UACC-62 melanoma = test system: UACC-62 melanoma
K-562 leukemia = test system: K-562 leukemia

Cc1c2cccc-2c(N(C)C)cc2c1[nH]c1ccccc12
TGI (MDA-MB-231 breast): 23.8 µM | TGI (OVCAR-3 ovarian): > 100 µM | TGI (NCI-H23 lung): 32.3 µM | TGI (HCT-15 colon): 13.6 µM | TGI (SF-295 CNS): 25.3 µM | TGI (MCF7 breast): 24.1 µM | TGI (LOX IMVI melanoma): 15.3 µM | TGI (SF-268 CNS): 16.7 µM | TGI (PC-3 prostate): 5.33 µM | TGI (OVCAR-5 ovarian): 9.35 µM | TGI (NCI-H226 lung): 21.8 µM | TGI (BT-549 breast): 8.19 µM | TGI (NCI-H460 lung): 32.2 µM | TGI (SF-539 CNS): 4.31 µM | TGI (TK-10 renal): 13.2 µM | TGI (KM12 colon): 7.98 µM | TGI (SK-MEL-5 melanoma): 18.5 µM | TGI (U251 CNS): 4.01 µM | TGI (MDA-MB-435): 22.5 µM | TGI (A498 renal): 37.8 µM | TGI (HCT-116 colon): 12.6 µM | TGI (SR leukemia): 3.98 µM | TGI (RPMI-8226 leukemia): 5.73 µM | TGI (HOP-62 NSCLC): 15.1 µM | TGI (M14 melanoma): 18.9 µM | TGI (SK-MEL-28 melanoma): 6.84 µM | TGI (MDA-N): 22.4 µM | TGI (T-47D breast): 5.09 µM | TGI (EKVX NSCLC): 5.05 µM | TGI (COLO 205 colon): 3.42 µM | TGI (MOLT-4 leukemia): 16.9 µM | TGI (DU-145 prostate): 28.7 µM | TGI (SNB-19 CNS): 22.1 µM | TGI (786-0 renal): 12 µM | TGI (ACHN renal): 12.4 µM | TGI (HOP-92 NSCLC): 3.54 µM | TGI (SW-620 colon): 18.9 µM | TGI (HT29 colon): 18.2 µM | TGI (HS 578T breast): 13.8 µM | TGI (NCI/ADR-RES ovarian): 13.4 µM | TGI (OVCAR-8 ovarian): 10.3 µM | TGI (SN12C renal): 20.2 µM | TGI (CAKI-1 renal): 32.7 µM | TGI (MALME-3M melanoma): 10.9 µM | TGI (UO-31 renal): 7.93 µM | TGI (UACC-257 melanoma): 26.4 µM | TGI (HL-60(TB) leukemia): 5.74 µM | TGI (CCRF-CEM leukemia): 12.8 µM | TGI (IGROV1 ovarian): 4.9 µM | TGI (SK-OV-3 ovarian): 15.1 µM | TGI (A549 NSCLC): 18.6 µM

O=S(=O)(N1CCCCN(S(=O)(=O)C(F)(F)F)CCCN(S(=O)(=O)C(F)(F)F)CCCN(S(=O)(=O)C(F)(F)F)CCCCN(S(=O)(=O)C(F)(F)F)CCCN(S(=O)(=O)C(F)(F)F)CCC1)C(F)(F)F
TGI (MDA-MB-231 breast): > 100 µM | TGI (OVCAR-3 ovarian): > 100 µM | TGI (NCI-H23 lung): > 100 µM | TGI (HCT-15 colon): > 100 µM | TGI (SF-295 CNS): 82.1 µM | TGI (SNB-75 CNS): 92.8 µM | TGI (MCF7 breast): > 100 µM | TGI (LOX IMVI melanoma): > 100 µM | TGI (SF-268 CNS): > 100 µM | TGI (PC-3 prostate): > 100 µM | TGI (RXF 393 renal): 70.2 µM | TGI (OVCAR-5 ovarian): > 100 µM | TGI (NCI-H226 lung): > 100 µM | TGI (NCI-H522 lung): > 100 µM | TGI (BT-549 breast): 73.2 µM | TGI (NCI-H460 lung): > 100 µM | TGI (SF-539 CNS): 84.1 µM | TGI (TK-10 renal): > 100 µM | TGI (SK-MEL-2 melanoma): > 100 µM | TGI (KM12 colon): > 100 µM | TGI (SK-MEL-5 melanoma): > 100 µM | TGI (U251 CNS): 64.1 µM | TGI (MDA-MB-435): > 100 µM | TGI (A498 renal): > 100 µM | TGI (HCC-2998 colon): > 100 µM | TGI (HCT-116 colon): > 100 µM | TGI (OVCAR-4 ovarian): > 100 µM | TGI (HOP-62 NSCLC): > 100 µM | TGI (M14 melanoma): > 100 µM | TGI (SK-MEL-28 melanoma): > 100 µM | TGI (MDA-N): > 100 µM | TGI (UACC-62 melanoma): > 100 µM | TGI (T-47D breast): > 100 µM | TGI (EKVX NSCLC): > 100 µM | TGI (COLO 205 colon): > 100 µM | TGI (MOLT-4 leukemia): > 100 µM | TGI (DU-145 prostate): > 100 µM | TGI (SNB-19 CNS): > 100 µM | TGI (786-0 renal): 35.3 µM | TGI (ACHN renal): > 100 µM | TGI (HOP-92 NSCLC): > 100 µM | TGI (SW-620 colon): > 100 µM | TGI (HT29 colon): > 100 µM | TGI (HS 578T breast): 92.4 µM | TGI (NCI/ADR-RES ovarian): > 100 µM | TGI (OVCAR-8 ovarian): > 100 µM | TGI (SN12C renal): > 100 µM | TGI (CAKI-1 renal): > 100 µM | TGI (MALME-3M melanoma): 49.5 µM | TGI (UO-31 renal): > 100 µM | TGI (UACC-257 melanoma): > 100 µM | TGI (K-562 leukemia): > 100 µM | TGI (HL-60(TB) leukemia): > 100 µM | TGI (CCRF-CEM leukemia): > 100 µM | TGI (IGROV1 ovarian): > 100 µM | TGI (SK-OV-3 ovarian): > 100 µM | TGI (A549 NSCLC): > 100 µM
